The numbers were not newly measured in PMC5427847, “Epilepsy-associated GRIN2A mutations reduce NMDA receptor trafficking and agonist potency – molecular profiling and functional rescue” (Scientific Reports, 2017), which cites them from elsewhere.

One data set has as its system D732A-GluN1. The following applies: competitive glycine site antagonist.
Data set [1] relates to GluN2A K484 to aspartic acid. The settings on record: K484 to aspartic acid versus wild type.
Data set [2] deals with GluN1 D732 mutated to alanine, co-expressed with GluN2A. The following applies: receptor remaining on the cell surface.

Structures are written as SMILES.

On to `O=C(O)c1cc(=O)c2c(Cl)cc(Cl)cc2[nH]1` [DCKA], for which the “Rescue of mutant receptors trapped within the ER” value in the data set with D732A-GluN1 is “has been achieved”. For the compound `N[C@@H](CCC(=O)O)C(=O)O` [Glutamate, glutamate], the “Reduction of glutamate affinity” value in data set [1] was 6 fold. `NCC(=O)O` [Glycine, glycine]: the “Effect on glycine binding” value in data set [1] is recorded as “no measurable effect”. The “Reduction in glycine potency” value in data set [2] is on record as 4000 fold.
